Test results reported in PubChem BioAssay AID850 (SRMLSC, 2007).
Active and inactive are the calls of the source. The rule behind the calls is not given here.

Tests used:
[1] = yeast lifespan-shortening chemical project counter-assay, dose-response inhibition of growth under permissive conditions (AID 850); conditions: Saccharomyces cerevisiae growth inhibition, permissive control, measured here: maximum growth inhibition, stronger effect = higher value;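 note: growth read as optical density after one day of incubation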
[2] = tested on: Saccharomyces cerevisiae growth inhibition, permissive control; test: as above

| Structure (SMILES) | IC50 [2] | inhibition ([1]; at 50 µM) [%] | other results |
| --- | --- | --- | --- |
| O=C(Oc1c(Cl)cc(Cl)c2cccnc12)c1cccc([N+](=O)[O-])c1 | 1.44 µM |  | inhibition ([1]; at 12.5 µM): 99.4% |
| Cc1cc(O)c(/C=N/Nc2ccc(Cl)cc2)c(=O)o1 | 3.93 µM |  | inhibition ([1]; at 25 µM): 98.2% |
| Fc1ccc(-c2ccc(-c3nn4c(-c5ccco5)nnc4s3)o2)cc1 | > 100 µM (inactive) |  | inhibition ([1]; at 6.25 µM): 13.4% |
| Cc1ccc(-c2cc(-c3ccccc3Cl)[nH]n2)c(O)c1 | > 100 µM (inactive) |  | inhibition ([1]; at 0.781 µM): 16.4% |
| CCCCCCCCCCCCCCCC[n+]1ccc(C(N)=O)cc1 | 0.545 µM |  | inhibition ([1]; at 25 µM): 100% |
| S=C(NCC1CCCCC1)Nc1ccc(Oc2ccccc2)cc1 | > 100 µM (inactive) |  | inhibition ([1]; at 0.781 µM): 7.72% |
| CC(C)(C)C(O)C(Oc1ccc(Cl)cc1)n1cncn1 (stereo not drawn) | 2.15 µM |  | inhibition ([1]; at 12.5 µM): 95.1% |
| CC(C)(C)N/N=C/c1cc(Cl)cc([N+](=O)[O-])c1O | 16.8 µM | 95.7 |  |
| COc1ccc(-c2cc3nc(C)cc(N4CC(C)CC(C)C4)n3n2)cc1 (stereo not drawn) | 50.7 µM | 48.3 |  |
| O=C(N/N=C/c1sc2ccccc2c1O)c1cccc2ccccc12 | 15.2 µM | 93.6 |  |
| Cc1cccc(OCCn2cc(/C=N/NC(=O)c3ccncc3)c3ccccc32)c1 | > 100 µM (inactive) |  | inhibition ([1]; at 0.781 µM): 10% |
| Brc1ccccc1-c1nnc(CSc2nnc3sc4ccccc4n23)o1 | > 100 µM (inactive) |  | inhibition ([1]; at 6.25 µM): 13.3% |
| O=c1c(-c2ccccc2)nc(-c2ccccc2)cn1O | 22.9 µM | 82.1 |  |
| Cc1ccc(C(=O)O)cc1N=Cc1cc(Br)cc(Br)c1O | 6.04 µM | 97.1 |  |
| CC(=O)O/N=C/c1c(N2CCOCC2)n(C)c2ccccc12 | 17.5 µM | 96.5 |  |
| CCCCCCCOC(=O)C[N+](C)(C)CCOC1CC2CCC1(C)C2(C)C (stereo not drawn) | 29.2 µM | 99.4 |  |
| CC1=C/C(=N\OS(=O)(=O)c2ccccc2)C(C)=CC1=O | 0.614 µM |  | inhibition ([1]; at 12.5 µM): 100% |
| Cc1c(C=O)c2ccccn2c1C(=O)c1ccncc1 | > 100 µM (inactive) | 10.7 |  |
| CCOC(=O)/C(=N\Nc1cccc(C(F)(F)F)c1)N(CCOC)CCOC | > 100 µM (inactive) |  | inhibition ([1]; at 12.5 µM): -1.36% |
| CCOC(=O)CNC(=O)CSc1nnc(-c2ccco2)n1Cc1ccco1 | > 100 µM (inactive) |  | inhibition ([1]; at 0.781 µM): 14.2% |
| O=S(=O)(Nc1ccc(-n2cccc2)cc1)c1ccc(Cl)cc1Cl | > 100 µM (inactive) |  | inhibition ([1]; at 0.391 µM): 29.9% |
| O=C1c2ccccc2-c2nc3ccccc3nc21 | > 100 µM (inactive) | 27.3 |  |

| Structure (SMILES) | IC50 [2] | inhibition ([1]; at 50 µM) [%] | other results |
| --- | --- | --- | --- |
| C=C(C)COc1ccc(-c2[nH]ncc2-c2ccccc2)c(O)c1 | 38.6 µM | 86.8 |  |
| O=C(O)c1ccccc1Nc1ccc([N+](=O)[O-])cc1 | 14.6 µM | 98 |  |
| CCOC(=O)c1sc(=S)n(-c2cc(F)ccc2F)c1N | > 100 µM (inactive) |  | inhibition ([1]; at 25 µM): 29.2% |
| COc1cccc(CC(=O)Nc2ccc3nc(C)sc3c2)c1 | 16 µM | 96.5 |  |
| Cc1ccc2nc3c(nc2c1)-c1ccccc1C3=O | > 100 µM (inactive) | 17 |  |
| Cc1cccc(OCCCCc2c(C)n[nH]c2C)c1C | 32 µM | 76.5 |  |
| Cc1nc2ccc(NC(=O)c3cc([N+](=O)[O-])cc([N+](=O)[O-])c3Cl)cc2s1 | 15.2 µM | 98.4 |  |
| CCOC(=O)C(=NC(C)CC)NNc1ccc(Br)cc1 (stereo not drawn) | 4.03 µM | 97.4 |  |
| OC(CNCC1CCCO1)Cn1c2ccc(Br)cc2c2cc(Br)ccc21 (stereo not drawn) | 41 µM | 98.8 |  |
| O=C1OCC(CO)(CO)N=C1NNc1ccccc1Cl | 3.49 µM |  | inhibition ([1]; at 25 µM): 98.4% |
| N#CSCC(=O)c1cccc2ccccc12 | > 100 µM (inactive) |  | inhibition ([1]; at 12.5 µM): 26.9% |
| CC(Sc1cccc[n+]1[O-])C(=O)Nc1cccc(S(=O)(=O)N2CCOCC2)c1 (stereo not drawn) | 8.22 µM | 99.8 |  |
| CCN1/C(=C(\O)c2ccccc2)C(=O)c2ccccc2S1(=O)=O | > 100 µM (inactive) |  | inhibition ([1]; at 1.563 µM): 19.4% |
| Cc1cc(=O)[nH]c(-n2nc(C)cc2C)n1 | 15.4 µM | 99.6 |  |
| O=C(OCn1ncc(Cl)c(Cl)c1=O)c1ccc(F)cc1 | > 100 µM (inactive) | 23 |  |
| O=c1[nH]c(Nc2ccccc2)cc2ccccc12 | > 100 µM (inactive) | 25.9 |  |
| CC1(C)C(C=C(Cl)Cl)C1C(=O)Nc1ccc([N+](=O)[O-])cc1 (stereo not drawn) | > 100 µM (inactive) | 15.4 |  |
| CCCCN=C(NNc1ccc(Br)cc1)C(=O)OCC | 5.51 µM | 97.9 |  |
| COc1ccc(C(=O)NC(=S)NNC(=O)c2cnccn2)cc1 | 14.2 µM | 71.2 |  |
| O=c1c2ccccc2nc2c3ccccc3c3nncn3n12 | > 100 µM (inactive) |  | inhibition ([1]; at 6.25 µM): 5.16% |
| CC1(CCc2ccccc2)NC(=S)N(c2ccc(Cl)cc2)N1 (stereo not drawn) | 20.1 µM | 99.6 |  |
| O=c1c(-c2ccc(Cl)cc2)[n+]([O-])c2ccccc2n1O | 7.82 µM |  | inhibition ([1]; at 25 µM): 99.8% |

| Structure (SMILES) | IC50 [2] | inhibition ([1]; at 50 µM) [%] | other results |
| --- | --- | --- | --- |
| Cc1ccc(C(=O)Oc2ccc(Cl)c3cccnc23)cc1[N+](=O)[O-] | 40.6 µM | 73.3 |  |
| O=C(c1ccccc1)c1ccc2nc(N3CCCCC3)c3nncn3c2c1 | > 100 µM (inactive) |  | inhibition ([1]; at 0.195 µM): 14.9% |
| Cc1ccccc1OCCCN1C(=O)C(=O)c2cccc(C)c21 | > 100 µM (inactive) |  | inhibition ([1]; at 25 µM): 24.9% |
| CCC(C)N1CC23C=CC(O2)C(C(=O)OC)C3C1=O (stereo not drawn) | > 100 µM (inactive) |  | inhibition ([1]; at 0.098 µM): 10.6% |
| O=C1CCCC/C1=N\Nc1ccc(OCc2ccccc2)cc1 | 29.7 µM | 72.5 |  |
| C=CCNC1=C(Cl)C(=O)c2ccccc2C1=O | > 100 µM (inactive) |  | inhibition ([1]; at 25 µM): 18.3% |
| Oc1cccc2ccc(Nc3ccccn3)nc12 | 12.5 µM | 99.4 |  |
| CCOC(=O)c1cnc(-n2nc(C)cc2C)nc1NCCc1ccccc1 | > 100 µM (inactive) | 17.4 |  |
| CCCn1c(Nc2nc3ccccc3n2C)nc2ccccc21 | 45.1 µM | 97.9 |  |
| CC(=O)NC(CCS(C)(=O)=O)C(=O)Nc1ccc2c(c1)OCO2 (stereo not drawn) | > 100 µM (inactive) |  | inhibition ([1]; at 1.563 µM): -0.58% |
| COc1ccc(OC)c(C2CC(=O)N3CN(c4cccc(Cl)c4)CSC3=C2C#N)c1 (stereo not drawn) | > 100 µM (inactive) |  | inhibition ([1]; at 25 µM): 15.2% |
| CCN1/C(=C/c2ccc3ccc(C)cc3[n+]2CC)Sc2ccccc21 | 21.7 µM | 92.9 |  |
| COc1ccccc1OCCN1CSC(=S)N(C)C1 | 17.2 µM | 82.4 |  |
| C/C(=N\Nc1nc2c(s1)CCCC2)c1ccccc1 | 28.2 µM | 99.1 |  |
| O=C(Nc1ccc(Cl)cc1)ON=C1CCCC1 | 7.46 µM |  | inhibition ([1]; at 25 µM): 99.4% |
| OC(CNCCc1ccc(C(F)(F)F)cc1)COc1ccc2ccccc2c1 (stereo not drawn) | > 100 µM (inactive) | 20.9 |  |
| COc1ccc(Br)cc1C1CC(=O)N2CN(C)CSC2=C1C#N (stereo not drawn) | > 100 µM (inactive) |  | inhibition ([1]; at 1.563 µM): 17% |
| CC1(CCc2ccccc2)NC(=S)N(c2ccccc2)N1 (stereo not drawn) | 9.11 µM | 99.8 |  |
| C=C(C)COc1ccc(-c2[nH]ncc2Oc2ccccc2OC)c(O)c1 | > 100 µM (inactive) |  | inhibition ([1]; at 1.563 µM): -1.35% |
| CCCCCCCCCCCCCCCC[n+]1ccc(/C=N/O)cc1 | 1.07 µM | 100 |  |
